Measured values as given in patent US20090326007A1, “Compounds and methods for modulating sir2 protein activity” (priority 2007, published 2009).
Where two headings read alike, the source gives them in different places.

What was measured:
[1] = target: T1, yHst2 I117F mutant (Saccharomyces cerevisiae, UniProt P53686, I117F); assay: Kinetic assay, deacetylase fluorescent activity assay kit, I117F mutant; assay type: biochemical; conditions: I117F mutant versus wild-type
T1 construct: Point mutations in yHst2 (1-294) were generated from the pRSET-A plasmid; His6 (N); made in house
T1 sequence (P53686 1-294 I117F): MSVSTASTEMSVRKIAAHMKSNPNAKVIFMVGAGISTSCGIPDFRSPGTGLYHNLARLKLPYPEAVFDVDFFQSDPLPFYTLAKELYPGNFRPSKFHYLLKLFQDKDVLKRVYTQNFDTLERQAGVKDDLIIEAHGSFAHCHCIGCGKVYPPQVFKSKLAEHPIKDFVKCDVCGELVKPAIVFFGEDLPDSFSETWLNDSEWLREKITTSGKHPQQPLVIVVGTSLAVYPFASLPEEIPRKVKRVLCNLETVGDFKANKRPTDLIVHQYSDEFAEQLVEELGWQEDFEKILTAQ
Source text: (§1) Protein Preparation, Crystallization and Structure Determination.
(§2) Kinetic Assays. […] Data taken in triplicate were fitted to the equation l/v=(Km/Vmax)(1/[S])+1/Vmax, using a root mean least squares approach in the form of a double reciprocal Lineweaver-Burk plot where the x-intercept is equal to −l/Km. […] The slopes of the Dixon Plot were replotted versus 1/[NAD^+], and the slope of the corresponding line was set equal to Km/(Vmax*Ki), in order to calculate Ki.

[2] = target: T2, yHst2 I117V mutant (Saccharomyces cerevisiae, UniProt P53686, I117V); assay: Kinetic assay, deacetylase fluorescent activity assay kit, I117V mutant; assay type: biochemical; conditions: I117V mutant versus wild-type
T2 construct: Point mutations in yHst2 (1-294) were generated from the pRSET-A plasmid; His6 (N); made in house
T2 sequence (P53686 1-294 I117V): as the sequence (P53686 1-294 I117F) above, with F117V counted along it
Source text: as §1, §2

[3] = target: T3, Hst2 (Saccharomyces cerevisiae, UniProt P53686); assay: Reversibility assay; assay type: biochemical; conditions: preincubation at 10x IC50, 100-fold dilution
T3 sequence (P53686 1-294): as the sequence (P53686 1-294 I117F) above, with F117I counted along it
Description: Reversibility Assay. Each of the inhibitor scaffolds identified in the HTS was tested to determine whether they were reversible, slowly reversible or irreversible inhibitors of Hst2. The reversibility of each compound was identified using the fluorigenic assay described herein.
To aid in the determination of the mechanism of inhibition for each newly identified inhibitor and to assay reversibly of inhibitor binding to the enzyme, it was tested whether or not inhibitor binding to the Sir2 enzyme was rapidly reversible, slowly reversible or irreversible. […] Then, the enzyme was diluted 100-fold into reaction wells with both substrates, and the amount of product formation over time was monitored (FIG. 2).

[4] = target: T4, human SIRT2 (Homo sapiens, UniProt Q8IXJ6); assay: Inhibition assay against human SIRT2 (fluorigenic); conditions: read-out: percent of residual enzyme activity, SIRT2
T4 sequence (Q8IXJ6 1-352 isoform Q8IXJ6-2): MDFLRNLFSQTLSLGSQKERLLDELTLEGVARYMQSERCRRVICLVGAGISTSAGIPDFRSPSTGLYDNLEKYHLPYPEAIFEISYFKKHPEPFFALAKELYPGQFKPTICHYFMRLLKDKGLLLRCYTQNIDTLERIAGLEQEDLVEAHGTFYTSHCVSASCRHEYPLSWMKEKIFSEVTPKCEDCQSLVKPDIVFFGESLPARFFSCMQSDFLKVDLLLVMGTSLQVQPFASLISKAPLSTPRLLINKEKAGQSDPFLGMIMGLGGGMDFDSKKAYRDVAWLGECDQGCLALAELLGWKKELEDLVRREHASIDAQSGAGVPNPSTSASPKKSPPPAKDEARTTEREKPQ
Description: Human recombinant SIRT3 was purchased from Enzo Life Sciences.
Inhibition Assay Against Human SIRT2 and SIRT3. […] Two independent measurements were performed for each compound and the average and standard deviation are reported.

[5] = system: trypsin; assay: Control for inhibition of the trypsin assay developer; assay type: biochemical
Source text: These compounds were not pursued further.

[6] = target: T3, Hst2; assay: IC50 determination, fluorigenic deacetylase assay, Hst2
Description: IC50 Determination. […] The dose-response curves were then fit to one-site competition or sigmoidal-dose response curves as appropriate in [sequence] PRISM (GraphPad Software, La Jolla, Calif.) and the IC50 was determined. Three independent IC50 measurements were performed for each compound and the average and standard deviation are reported.
The resulting deacetylase activity for the three experiments was averaged and reported as a percentage relative to control wells containing no inhibitor.

[7] = read-out: Hst2 IC50, Table 5, 160 μM NAD+, 100 μM substrate, 1 μM Hst2, 15 min

NC(=O)c1cccnc1 [Nicotinamide (1), Nicotinamide, reference compound]
increase of Kii for nicotinamide over wild-type enzyme [1]: ~6 fold
decrease of Kii for nicotinamide over wild-type enzyme [2]: ~2.5 fold
slope of progress curve with respect to the enzyme control [3]: 30%
remaining activity at 100 µM [4]: 26 ± 1.4%

Pyrido[2,3-a]4-nitropyrrolo[3,4-c]carbazole-5,7(6H)-dione) (cyclopentadienyl) monocarbonyl ruthenium [Compound 16a]
inhibition of trypsin [5]: did not inhibit trypsin
IC50 ([6]; Table 4, Hst2): 36 ± 12 µM
IC50 values (range in words) ([6]; Table 5): low micromolar
IC50 [6, 7]: 36 ± 12 µM

(Pyrido[2,3-a]5-nitropyrrolo[3,4-c]carbazole-5,7(6H)-dione) (cyclopentadienyl)monocarbonyl ruthenium [Compound 16b]
inhibition of trypsin [5]: did not inhibit trypsin
IC50 ([6]; Table 4, Hst2): 24 ± 16 µM
IC50 values (range in words) ([6]; Table 5): low micromolar
IC50 [6, 7]: 24 ± 16 µM
